Test [1] has as its target BCL-2 (binding to BAK peptide) (Homo sapiens, UniProt P10415). The experiment in a line: SPR (Biacore) solution inhibition assay, BCL-2 binding to immobilized BAK peptide. The following applies: biotinylated BAK peptide surface, 56 nM BCL-2, 25° C.; range = high and low IC50 values from multiple experiments; read-out: BCL2_SPR IC50 BAK. An excerpt:
(§1) The present method includes utility of a Surface plasmon resonance (SPR)-based biosensor (Biacore™′ GE Healthcare, Uppsala, Sweden) to characterize BCL-2 inhibitors.
(§2) Biacore™ utilizes the phenomenon of surface plasmon resonance (SPR) to detect and measure binding interactions. In a typical Biacore experiment, one of the interacting molecules (ligand) is immobilized on a flexible dextran matrix while the interacting partner (analyte) is allowed to flow across that surface. A binding interaction results in an increase in mass on the sensor surface and a corresponding direct change in the refractive index of the medium in the vicinity of the sensor surface. Changes in refractive index or signal are recorded in resonance units (R.U.) Signal changes due to association and dissociation of complexes are monitored in a non-invasive manner, continuously and in real-time, the results of which are reported in the form of a sensorgram.
(§3) The SPR assay is configured to examine solution inhibition of BCL-2 binding to peptide derivatized sensor surfaces to generate IC50 values as a measure of inhibitor potency.
(§4) Biacore™ A100 (GE Healthcare, Uppsala, Sweden) was used to conduct all experiments reported herein. Sensor surface preparation and all interaction analyses experiments were performed at 25° C. Reagents were purchased from GE Healthcare. Running buffer containing 10 mM Hepes, pH7.4, 150 mM sodium chloride, 1.25 mM Dithiothreitol, 3% Dimethyl sulfoxide and 0.05% polysorbate 20 were utilized throughout all analyses.
(§5) Biotinylated BAK, BAD and NOXA peptides were diluted to 10 nM in running buffer and captured onto a sensor surface pre-derivatized with streptavidin (sensor chip SA) to peptide surface densities in the range 50-100 R.U. Peptide captured surfaces were blocked with 500 μM PEO2-Biotin.
(§6) Interaction analyses were performed by first equilibrating each sample within a 6 point three fold compound dilution series in the range 16 μM to […] with 56 nM BCL-2 for one hour during instrument start-up procedures. Protein compound mixtures were then injected over each peptide surface in parallel for 60 seconds at a flow-rate of 30 μL/min. 56 nM BCL-2 control samples were also prepared and run at regular intervals during the assay. Surface regeneration was performed at the end of each analysis cycle by two 30 second injections of 10 mM Glycine, pH 2.5, 1M Sodium Chloride, 0.05% polysorbate 20. Samples and control compound samples were run in duplicate and controls are also run at regular intervals during the assay to monitor surface and assay performance.
(§7) Data analyses are carried out using Biacore™ A100 evaluation software v1.1 to validate assay quality. Binding level report points were used relative to BCL-2 control samples to calculate % inhibition values for each compound protein mixture. […] The range of data shown in table 1 represents the high and low IC50 values obtained from multiple experiments.

Test [2] concerns the target BCL-2 (binding to BAD peptide) (Homo sapiens, UniProt P10415). Kind of test: SPR (Biacore) solution inhibition assay, BCL-2 binding to immobilized BAD peptide. The following applies: biotinylated BAD peptide surface, 56 nM BCL-2, 25° C.; range = high and low IC50 values from multiple experiments; read-out: BCL2_SPR IC50 BAD.
Excerpt: as §1, §2, §3, §4, §5, §6, §7
Background: Surface plasmon resonance follows binding to a sensor surface in real time, without labels.

Data on 36 molecules can be found in US20140357633A1, “COMPOUNDS FOR INHIBITING THE INTERACTION OF BCL2 WITH BINDING PARTNERS” (NOVARTIS AG, priority 2011, published 2014).

pIC50: −log10 of the molar value.

Chain of BCL-2 (binding to BAD peptide) (P10415 whole entry): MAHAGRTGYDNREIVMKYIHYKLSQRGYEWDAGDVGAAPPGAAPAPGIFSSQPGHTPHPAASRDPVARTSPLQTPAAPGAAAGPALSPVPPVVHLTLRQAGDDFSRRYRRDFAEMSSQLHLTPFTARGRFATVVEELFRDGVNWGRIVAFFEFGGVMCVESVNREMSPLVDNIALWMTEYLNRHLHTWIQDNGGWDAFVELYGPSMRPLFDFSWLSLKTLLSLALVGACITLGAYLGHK
Chain of BCL-2 (binding to BAK peptide) (P10415 whole entry): as above

The pIC50 is −log10 of the IC50, conventionally taken in molar units. Take `CCCCN(CCCC)C(=O)c1cc(C)n(-c2ccc(NC(=O)[C@@H](C)c3ccccc3)cc2C(=O)N2Cc3ccccc3C[C@H]2CO)n1` [Example 52]: the pIC50 in test [1] is 7.10 to 7.12; in test [2], 7.05 to 7.07. Turning to `CCCCN(CCCC)C(=O)c1cc(C)n(-c2ccc(NC(=O)CCC3COc4ccccc43)cc2C(=O)N2Cc3ccccc3C[C@H]2CO)n1` (stereo partly drawn) [Example 130], the pIC50 in test [1] was 7.28 to 7.30; in test [2], 7.21 to 7.22.

Regarding `CCCCN(CCCC)C(=O)c1cc(C)n(-c2ccc(NC(=O)Cc3noc4ccccc34)cc2C(=O)N2Cc3ccccc3C[C@H]2CO)n1` [Example 121], the values for the pIC50 in test [1] and in test [2] were 7.23 to 7.26 and 7.17 to 7.21, respectively. Taken in the same sequence, the figures for `CCCCN(CCCC)C(=O)c1cc(C)n(-c2ccc(NC(=O)Cc3ccc(OC)c(C(F)(F)F)c3)cc2C(=O)N2Cc3ccccc3C[C@H]2CO)n1` [Example 78] were 7.08 to 7.13 and 6.99 to 7.00.

As to `CCCCN(CCCC)C(=O)c1cc(C)n(-c2ccc(NC(=O)C3Oc4cc5ccccc5cc4O3)cc2C(=O)N2Cc3ccccc3C[C@H]2CO)n1` [Example 67], the figures for the pIC50 in test [1] and in test [2] were 7.34 to 7.37 and 7.28 to 7.31, respectively.

As to `CCCCN(CCCC)C(=O)c1cc(C)n(-c2ccc(NC(=O)c3c(C)n(C)n(-c4ccccc4)c3=O)cc2C(=O)N2Cc3ccccc3C[C@H]2CO)n1` [Example 73], the pIC50 is 7.08 to 7.23 in test [1] and 7.00 to 7.13 in test [2]. Turning to `CCCCN(CCCC)C(=O)c1cc(C)n(-c2ccc(NC(=O)c3ncoc3-c3ccccc3)cc2C(=O)N2Cc3ccccc3C[C@H]2CO)n1` [Example 44], the pIC50 in test [1] was 6.62 to 6.63; in test [2], 6.55 to 6.56. In the same order, the values of `CCCCN(CCCC)C(=O)c1cc(C)n(-c2ccc(NC(=O)c3oc4ccccc4c3C)cc2C(=O)N2Cc3ccccc3C[C@H]2CO)n1` [Example 80] are 5.97 to 5.99 and 5.96 to 6.04. With `CCCCN(CCCC)C(=O)c1cc(C)n(-c2ccc(NC(=O)C(C)C)cc2C(=O)N2Cc3ccccc3C[C@H]2CO)n1` [Example 163], in test [1], the pIC50 is 6.31 to 6.32. Take `CCCCN(CCCC)C(=O)c1cc(C)n(-c2ccc(NC(=O)c3nn(C)c4ncccc34)cc2C(=O)N2Cc3ccccc3C[C@H]2CO)n1` [Example 45]: the pIC50 in test [1] is 6.25 to 6.30; in test [2] it was 6.11 to 6.16. In the same order, the values of `CCCCN(CCCC)C(=O)c1cc(C)n(-c2ccc(NC(=O)C(C)CC(=O)O)cc2C(=O)N2Cc3ccccc3C[C@H]2CO)n1` (stereo partly drawn) [Example 100] are 6.89 to 6.90 and 6.76 to 6.77. Taken in the same sequence, the figures for `CCCCN(CCCC)C(=O)c1cc(C)n(-c2ccc(NC(=O)c3ccc4c(c3)nnn4C(C)C)cc2C(=O)N2Cc3ccccc3C[C@H]2CO)n1` [Example 147] were 6.50 to 6.53 and 6.42 to 6.51. In the same order, the values of `CCCCN(CCCC)C(=O)c1cc(C)n(-c2ccc(NC(=O)C(CC(=O)O)Cc3ccccc3)cc2C(=O)N2Cc3ccccc3C[C@H]2CO)n1` (stereo partly drawn) [Example 15] are 7.32 to 7.35 and 7.23 to 7.27.

For `CCCCN(CCCC)C(=O)c1cc(C)n(-c2ccc(NC(=O)C3CC(=O)N(c4ccc(OCC)cc4)C3)cc2C(=O)N2Cc3ccccc3C[C@H]2CO)n1` (stereo partly drawn) [Example 115], the pIC50 is 6.81 in test [1] and 6.69 to 6.75 in test [2]. Regarding `CCCCN(CCCC)C(=O)c1cc(C)n(-c2ccc(NC(=O)CC3NC(=O)NC3=O)cc2C(=O)N2Cc3ccccc3C[C@H]2CO)n1` (stereo partly drawn) [Example 111], the pIC50 is 6.25 to 6.26 in test [1] and 6.10 to 6.12 in test [2]. In the same order, the values of `CCCCN(CCCC)C(=O)c1cc(C)n(-c2ccc(NC(=O)COc3cccc(OC)c3)cc2C(=O)N2Cc3ccccc3C[C@H]2CO)n1` [Example 22] are 5.46 to 5.58 and 5.46. Taken in the same sequence, the figures for `CCCCN(CCCC)C(=O)c1cc(C)n(-c2ccc(NC(=O)OC)cc2C(=O)N2Cc3ccccc3C[C@H]2CO)n1` [Example 12] were 6.24 to 6.25 and 6.05 to 6.21. As to `CCCCN(CCCC)C(=O)c1cc(C)n(-c2ccc(NC(=O)CCCc3ccc([N+](=O)[O-])cc3)cc2C(=O)N2Cc3ccccc3C[C@H]2CO)n1` [Example 61], the pIC50 in test [1] was 6.57 to 6.64; in test [2], 6.50 to 6.51.

Regarding `CCCCN(CCCC)C(=O)c1cc(C)n(-c2ccc(NC(=O)C(OC)c3ccccc3)cc2C(=O)N2Cc3ccccc3C[C@H]2CO)n1` (stereo partly drawn) [Example 72], the pIC50 is 7.30 to 7.31 in test [1] and 7.23 to 7.25 in test [2]. Consider `CCCCN(CCCC)C(=O)c1cc(C)n(-c2ccc(NC(=O)c3ccc(Cl)cc3I)cc2C(=O)N2Cc3ccccc3C[C@H]2CO)n1` [Example 82], for which the pIC50 in test [2] is 5.83 to 5.88.

For `CCCCN(CCCC)C(=O)c1cc(C)n(-c2ccc(NC(=O)c3ccc(OC(F)(F)F)cc3)cc2C(=O)N2Cc3ccccc3C[C@H]2CO)n1` [Example 93], the pIC50 was 5.74 to 5.75 in test [1] and 5.72 to 5.73 in test [2]. In the case of `CCCCN(CCCC)C(=O)c1cc(C)n(-c2ccc(NC(=O)C3CC(=O)N(Cc4ccccc4)C3)cc2C(=O)N2Cc3ccccc3C[C@H]2CO)n1` (stereo partly drawn) [Example 101], the pIC50 was 6.83 to 6.94 in test [1] and 6.78 to 6.89 in test [2]. Taken in the same sequence, the figures for `CCCCN(CCCC)C(=O)c1cc(C)n(-c2ccc(NC(=O)Cc3ccc(OC)c(Br)c3)cc2C(=O)N2Cc3ccccc3C[C@H]2CO)n1` [Example 131] were 7.51 to 7.63 and 7.44 to 7.56. Taken in the same sequence, the figures for `CCCCN(CCCC)C(=O)c1cc(C)n(-c2ccc(NC(=O)c3cc(SC)ccc3Cl)cc2C(=O)N2Cc3ccccc3C[C@H]2CO)n1` [Example 89] were 6.64 to 6.65 and 6.54 to 6.55.

As for `CCCCN(CCCC)C(=O)c1cc(C)n(-c2ccc(NC(=O)C(Cc3ccccc3)C(=O)O)cc2C(=O)N2Cc3ccccc3C[C@H]2CO)n1` (stereo partly drawn) [Example 25], the negative-log IC50 (pIC50) in test [1] is 7.14 to 7.20; in test [2], 7.17.

Take `CCCCC(CCCC)C(=O)c1cc(C)n(-c2ccc(NC(=O)COc3ccc(N4CCCC4=O)cc3)cc2C(=O)N2Cc3ccccc3C[C@H]2CO)n1` [Example 48]: the pIC50 was 6.22 to 6.24 in test [1] and 6.06 to 6.07 in test [2]. In the same order, the values of `CCCCN(CCCC)C(=O)c1cc(C)n(-c2ccc(NC(=O)COc3ccc(Cl)cc3)cc2C(=O)N2Cc3ccccc3C[C@H]2CO)n1` [Example 7] are 6.79 to 6.85 and 6.70. Taken in the same sequence, the figures for `CCCCN(CCCC)C(=O)c1cc(C)n(-c2ccc(NC(=O)COc3ccc(OC)cc3)cc2C(=O)N2Cc3ccccc3C[C@H]2CO)n1` [Example 24] were 5.06 to 5.19 and 4.93 to 5.06.

Regarding `CCCCN(CCCC)C(=O)c1cc(C)n(-c2ccc(NC(=O)C(Cc3ccccc3)(Cc3ccccc3)C(=O)O)cc2C(=O)N2Cc3ccccc3C[C@H]2CO)n1` [Example 26], the pIC50 in test [1] was 7.26 to 7.36; in test [2] it was 7.20 to 7.34. Taken in the same sequence, the figures for `CCCCN(CCCC)C(=O)c1cc(C)n(-c2ccc(NC(=O)C(C)(C)c3ccccc3)cc2C(=O)N2Cc3ccccc3C[C@H]2CO)n1` [Example 31] were 6.84 to 6.93 and 6.84 to 6.88. Consider `CCCCN(CCCC)C(=O)c1cc(C)n(-c2ccc(NC(=O)COc3ccccc3)cc2C(=O)N2Cc3ccccc3C[C@H]2CO)n1` [Example 4], for which the pIC50 is 6.96 to 7.08 in test [1] and 7.01 to 7.10 in test [2]. As for `CCCCN(CCCC)C(=O)c1cc(C)n(-c2ccc(NC(=O)c3ccc4c(C)c(C)[nH]c4c3)cc2C(=O)N2Cc3ccccc3C[C@H]2CO)n1` [Example 86], the pIC50 in test [1] was 6.36; in test [2] it was 6.20 to 6.21. In the same order, the values of `CCCCN(CCCC)C(=O)c1cc(C)n(-c2ccc(NC(=O)CCc3c[nH]c4c(Cl)cccc34)cc2C(=O)N2Cc3ccccc3C[C@H]2CO)n1` [Example 124] are 6.63 to 6.67 and 6.58 to 6.59.

As for `CCCCN(CCCC)C(=O)c1cc(C)n(-c2ccc(NC(=O)c3csc(N4CCOCC4)n3)cc2C(=O)N2Cc3ccccc3C[C@H]2CO)n1` [Example 122], the pIC50 in test [1] is 6.59 to 6.63; in test [2] it was 6.49 to 6.50. Taken in the same sequence, the figures for `CCCCN(CCCC)C(=O)c1cc(C)n(-c2ccc(NC(C)=O)cc2C(=O)N2Cc3ccccc3C[C@H]2CO)n1` [Example 13] were 6.32 to 6.34 and 6.10 to 6.11. On to `CCCCN(CCCC)C(=O)c1cc(C)n(-c2ccc(NC(=O)C(CC(=O)N(C)C)c3ccccc3)cc2C(=O)N2Cc3ccccc3C[C@H]2CO)n1` (stereo partly drawn) [Example 36], for which the pIC50 in test [1] was 6.84 to 6.96.
